A short description of data set [1]: Selectivity of fluorescence turn-on towards H2S versus biological thiols and nucleophiles in PBS buffer. The conditions noted are these: probe 20 μM. The protocol: FIG. 1. Fluorescence response (λex: 330 nm) of probes (20 μM) in PBS buffer (pH 7.4), at room temperature, and in the presence of various biological thiols and nucleophiles: (1) PBS buffer alone; (2) 50 μM Na2S; (3) 100 μM cysteine; (4) 1 mM glutathione; (5) 100 μM serine; (6) 100 μM lysine; (7) 1 mM glutathione+50 μM Na2S. (A): Probe AL1 and (B): Probe AL3.
To assess our hypothesis, the selectivity of our design towards H2S was first assessed by incubating AL1 (20 μM) with various biological thiols and nucleophiles in PBS buffer (FIG. 1A). After reacting for 10 min at room temperature, the resulting turn-on response was gauged using fluorescence spectroscopy. The results from this assay were indeed stunning. In the presence of 50 μM Na2S (an H2S equivalent at physiological pH) a greater than 100-fold increase in relative fluorescence intensity was observed. […] Moreover, this assay confirmed that AL1 is not consumed by the presence of other thiols and that its reactivity towards H2S is retained in their presence (FIG. 1A, Column 7). To confirm that the gem-dimethyl group affords enhanced differentiation, we also generated AL3 which lacks the steric shield alpha to the ester carbonyl.

A short description of data set [2]: Stability in PBS buffer over a 24 h incubation period (fluorescence). The format is physicochemical. The protocol:
(§1) FIG. 2. Fluorescence response (λex: 330 nm) of probes (20 μM) at room temperature and under varying conditions: (A and B): (1): 24 hour incubation period in PBS buffer alone; (2): 24 hour incubation period in PBS buffer followed by the addition of Na2S (50 μM). (C and D): (1): 10 min incubation period in fetal bovine plasma alone; (2): 10 min incubation period in fetal bovine plasma and in the presence of Na2S (50 μM). AL1: 2A and 2C and AL3: 2B and 2D.
(§2) To further establish the increased durability of AL1 relative to AL3, we tested the stability of both compounds in PBS buffer over a 24 h incubation period (FIGS. 2A and 2B). […] The stability of AL1 and AL3 was also assessed in fetal bovine plasma (FIGS. 2C and 2D).

Data set [3] can be described thus: Stability in fetal bovine plasma (fluorescence). The format is in vitro ADME. The conditions noted are these: probe 20 μM. As to the method:
as §1, §2

A short description of data set [4]: Time-dependent and concentration-dependent fluorescence sensing of H2S in PBS buffer. The settings on record: AL1 20 μM, Na2S 50 μM, PBS buffer pH 7.4, room temperature. The protocol:
FIG. 3. (A) Time-dependent fluorescence emission (λex: 330 nm) of AL1 (20 μM) in the presence of Na2S (50 μM). (B) Fluorescence intensity (λex: 330 nm) of AL1 ([…]) in response to increasing Na2S concentrations.
The efficiency of AL1 in sensing H2S in PBS buffer (pH 7.4) and at room temperature was also assessed (FIG. 3A). Under these conditions, the resulting fluorescence intensity reached a maximum in less than two minutes, highlighting that our designed probe is not only selective but also highly reactive towards H2S—a necessary feature for detecting analytes which are short-lived. To determine if AL1 could also be used to detect H2S quantitatively in buffer, the resulting fluorescence was measured in response to a series of different concentrations of H2S (FIG. 3B). Indeed, the ensuing fluorescence intensity increased in a linear fashion in the range of 0-20 μM H2S and with a detection limit of 0.05 μM.

The test system of the next data set is HeLa cells. In words: Confocal fluorescence imaging of H2S in live HeLa cells. The settings on record: for fluorescence in cells upon treatment with Na2S / fluorescence in cells, probe alone (no Na2S): HeLa, AL2 10 μM; for fluorescence in cells upon treatment with Na2S: 50 μM Na2S, AL1 12.5 μM, ex 405 nm, em 452 nm; for fluorescence in cells, probe alone (no Na2S): AL1 12.5 μM 45 min then washed. The class given is cell-based. The protocol: FIG. 4. (A) Visualization of H2S in live HeLa cells with AL1 (12.5 μm). Imaging: ex: 405 nm, em: 452 nm. (a and b): No Na2S added (control); (c and d): Addition of Na2S (50 μm). Scale bar is set to 20 μm. (B) Visualization of H2S in live HeLa cells with AL4 (5 μm). Imaging: ex: 561 nm, em: 587 nm. (e and f): No Na2S added (control); g and h: Addition of Na2S (25 μM). Scale bar is set to 20 μm.
FIG. 5. Fluorescence images of live HeLa cells treated with AL2 (10 μM); (a and b): No Na2S (control); (c and d): Addition of Na2S (50 μM); (e and f): Fluorescence images of HeLa cells pretreated with biotin (2 mM) followed by treatments with AL2 (10 μM) and Na2S (50 μM). Imaging: ex: 405 nm, em: 452 nm. Scale bar is set to 20 μm.
Probe AL1 was also shown to be useful in imaging H2S in live cells using confocal microscopy. Cultured HeLa cells were incubated with AL1 (12.5 μM) for 45 min and then washed to remove any excess probe. […] Probe AL4 utilizes resorufin as its latent fluorescent reporter which has the added benefit of longer excitation and emission wavelengths, further boosting its potential in tissue imaging applications.
(§3) As a proof of concept we generated AL2, a cancer cell-specific H2S probe, by coupling biotin to its amine handle (Scheme 1). W. X. Ren et al, Chem. Commun. 2015, 51, 10403-10418; X. Song et al, RSC Adv. 2017, 7, 15817-15822; M. H. Lee et al, Chem. Soc. Rev. 2018, 47, 28-52. Fluorescence imaging experiments were then conducted using both a biotin positive (HeLa) and biotin negative (HEK293) cell line to confirm its selective targeting and delivery. […] To confirm that AL2 was targeting biotin cell surface receptors, in a separate experiment, HeLa cells were pre-treated with biotin prior to the addition of AL2. […] The selectivity of AL2 was further established using HEK293 (noncancerous human embryonic kidney) cells.

The subject of another data set is HEK293 cells. In words: Fluorescence imaging in live HEK293 cells (biotin negative). The format is cell-based, human. The conditions noted are these: AL2 10 μM, with or without Na2S 50 μM. As to the method:
FIG. 6. Fluorescence images of live HEK293 cells. (a and b): Treatment with AL2 (10 μM) alone; (c and d): Treatment with AL2 (10 μM) followed by treatment with Na2S (50 μM). Imaging: ex: 405 nm, em: 452 nm. Scale bar is set to 20 μm.
as §3

Turning to `CC(=O)NCCS[Se]CC(C)(C)C(=O)Oc1ccc2ccc(=O)oc2c1` [AL1], the “increase in relative fluorescence intensity” value in data set [1] (50 μM Na2S, PBS buffer pH 7.4, 10 min, room temperature, λex 330 nm) is reported as “greater than 100 fold”. For the same molecule, the “reactivity towards H2S in the presence of other thiols” value in data set [1] (1 mM glutathione + 50 μM Na2S, PBS pH 7.4 (FIG. 1A, Column 7)) is given as “retained”. The “selectivity: fluorescence in the presence of other biologically relevant thiols and nucleophiles” value in data set [1] (100 μM cysteine, 1 mM glutathione, 100 μM serine, 100 μM lysine, PBS pH 7.4, 10 min, room temperature) is reported as “no increase in fluorescence was detected”. The “fluorescence on addition of Na2S after prolonged exposure to buffer” value in data set [2] (24 h in PBS buffer, then Na2S 50 μM) is “impressive turn-on fluorescence”. For the same molecule, the “stability in PBS buffer alone” value in data set [2] (probe 20 μM, 24 h incubation, room temperature) is “superb stability”. Further, the “turn-on response in fetal bovine plasma when Na2S present” value in data set [3] (10 min, Na2S 50 μM) was “marked turn-on response”. In addition, the “stability in fetal bovine plasma (fluorescence in the absence of Na2S)” value in data set [3] (10 min incubation, room temperature) was “remarkable stability”. In data set [4], the “time for fluorescence intensity to reach a maximum” value is “less than two”. In the data set with HeLa cells, the “fluorescence in cells upon treatment with Na2S” value is reported as “strong blue fluorescence” and the “fluorescence in cells, probe alone (no Na2S)” value is given as “did not observe any fluorescent cells”.
Consider `CC(C)(C[Se]SCCNC(=O)CCCC[C@@H]1SC[C@@H]2NC(=O)N[C@@H]21)C(=O)Oc1ccc2ccc(=O)oc2c1` [AL2], for which, in the data set on HeLa cells (HeLa pretreated with biotin 2 mM, then AL2 10 μM and Na2S 50 μM), the “fluorescence in cells pre-treated with biotin, after Na2S” value was “did not produce any fluorescence”. Also, in the data set with HeLa cells, the “fluorescence in cells upon treatment with Na2S” value is given as “strong blue fluorescent signal” and the “fluorescence in cells, probe alone (no Na2S)” value is listed as “minimal fluorescence”. For the same molecule, the “fluorescence in cells, even upon addition of exogenous Na2S” value in the data set on HEK293 cells was “negligible fluorescence”.

Source of the values: patent US11931428B2, “Selective hydrogen sulfide probe and uses thereof” (Wake Forest University Health Sciences, priority 2019, dated 2024).
